# From patent publication US20090036448A1, “PYRIMIDINE DERIVATIVES AND METHODS OF TREATMENT RELATED TO THE USE THEREOF” (TAISHO PHARMECUTICAL CO., LTD., priority 2004, published 2009)
# Target: MCH receptor (Homo sapiens, UniProt Q99705)
# Assay: Receptor binding assay with Radiolabelled MCH Ligand
# Parameters: expressed in transfected cells; host or cells: 293 cells (human kidney, ATCC), transient transfection; crude membranes
# Conditions: class by percent of control at 10^-7 M or IC50
# Procedure, shortened: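 Membranes from 293 cells transiently transfected with human MCH receptor competed test compounds against a radiolabelled MCH ligand in Tris-HCl pH 7.4 with MgCl2 and EDTA for 60–120 min at room temperature. Filtration and scintillation counting followed, with cold MCH defining nonspecific binding. IC50 came from logit-log plots of %B/B0, and Ki from the Cheng-Prusoff equation.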
# MCH receptor, sequence (Q99705 whole entry): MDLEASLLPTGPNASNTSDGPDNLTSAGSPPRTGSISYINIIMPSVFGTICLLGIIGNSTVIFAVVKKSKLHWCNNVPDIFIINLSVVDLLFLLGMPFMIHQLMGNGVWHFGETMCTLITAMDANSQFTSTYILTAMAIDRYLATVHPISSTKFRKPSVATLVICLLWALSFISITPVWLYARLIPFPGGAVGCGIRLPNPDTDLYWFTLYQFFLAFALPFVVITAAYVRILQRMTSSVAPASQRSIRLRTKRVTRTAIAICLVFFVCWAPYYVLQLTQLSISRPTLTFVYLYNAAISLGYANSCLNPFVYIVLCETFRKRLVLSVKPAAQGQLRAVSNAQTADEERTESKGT
row,Compound,class
1,Cc1nc(N[C@H]2CC[C@@H](NCc3ccc(Br)cc3)CC2)cc(N(C)C)n1 [compound 358],3 (Class 3: The value of percent of control at 10^−7 M was more than 60% or the value of IC50 was more than 200 nM.)
2,Cc1nc(N[C@H]2CC[C@@H](NC(=O)OCc3ccc([N+](=O)[O-])cc3)CC2)cc(N(C)C)n1 [compound 460],3 (Class 3: The value of percent of control at 10^−7 M was more than 60% or the value of IC50 was more than 200 nM.)
3,Cc1nc(N[C@H]2CC[C@@H](NS(=O)(=O)c3ccc(C)c(Cl)c3)CC2)cc(N(C)C)n1 [compound 485],3 (Class 3: The value of percent of control at 10^−7 M was more than 60% or the value of IC50 was more than 200 nM.)
4,Cc1ccc(CN[C@H]2CC[C@@H](Nc3cc(N(C)C)nc(C)n3)CC2)cc1 [compound 387],3 (Class 3: The value of percent of control at 10^−7 M was more than 60% or the value of IC50 was more than 200 nM.)
5,Cc1nc(N[C@H]2CC[C@@H](NC(=O)CCC(=O)c3ccc(S(C)(=O)=O)cc3)CC2)cc(N(C)C)n1 [compound 292],3 (Class 3: The value of percent of control at 10^−7 M was more than 60% or the value of IC50 was more than 200 nM.)
6,CCOc1ccc(C(=O)N[C@H]2CC[C@@H](Nc3cc(N(C)C)nc(C)n3)CC2)cc1 [compound 220],3 (Class 3: The value of percent of control at 10^−7 M was more than 60% or the value of IC50 was more than 200 nM.)
7,Cc1nc(N[C@H]2CC[C@@H](NS(=O)(=O)c3ccc(-c4ccon4)s3)CC2)cc(N(C)C)n1 [compound 517],3 (Class 3: The value of percent of control at 10^−7 M was more than 60% or the value of IC50 was more than 200 nM.)
8,COC(=O)c1csc(S(=O)(=O)N[C@H]2CC[C@@H](Nc3cc(N(C)C)nc(C)n3)CC2)c1OC [compound 518],3 (Class 3: The value of percent of control at 10^−7 M was more than 60% or the value of IC50 was more than 200 nM.)
9,Cc1nc(N[C@H]2CC[C@@H](NC(=O)C(C)c3ccc(-c4ccccc4)c(F)c3)CC2)cc(N(C)C)n1 (relative stereo) [compound 284],3 (Class 3: The value of percent of control at 10^−7 M was more than 60% or the value of IC50 was more than 200 nM.)
10,COc1ccc(Oc2ccc([N+](=O)[O-])cc2CN[C@H]2CC[C@@H](Nc3cc(N(C)C)nc(C)n3)CC2)cc1 [compound 377],3 (Class 3: The value of percent of control at 10^−7 M was more than 60% or the value of IC50 was more than 200 nM.)
11,Cc1nc(N[C@H]2CC[C@@H](NC(=O)c3ccc(SC(F)(F)F)cc3)CC2)cc(N(C)C)n1 [compound 261],3 (Class 3: The value of percent of control at 10^−7 M was more than 60% or the value of IC50 was more than 200 nM.)
12,Cc1ccc(OC(=O)N[C@H]2CC[C@@H](Nc3cc(N(C)C)nc(C)n3)CC2)cc1 [compound 466],3 (Class 3: The value of percent of control at 10^−7 M was more than 60% or the value of IC50 was more than 200 nM.)
13,Cc1nc(N[C@H]2CC[C@@H](NCc3ccccc3)CC2)cc(N(C)C)n1 [compound 354],3 (Class 3: The value of percent of control at 10^−7 M was more than 60% or the value of IC50 was more than 200 nM.)
14,Cc1ccc(C(=O)c2ccccc2C(=O)N[C@H]2CC[C@@H](Nc3cc(N(C)C)nc(C)n3)CC2)cc1 [compound 330],3 (Class 3: The value of percent of control at 10^−7 M was more than 60% or the value of IC50 was more than 200 nM.)
15,Cc1nc(N[C@H]2CC[C@@H](NCc3cccc([N+](=O)[O-])c3)CC2)cc(N(C)C)n1 [compound 379],3 (Class 3: The value of percent of control at 10^−7 M was more than 60% or the value of IC50 was more than 200 nM.)
16,Cc1nc(N[C@H]2CC[C@@H](NC(=O)C3C[C@@H](c4ccccc4)CC[C@H]3C(=O)c3ccccc3)CC2)cc(N(C)C)n1 (some centres unmarked) [compound 351],3 (Class 3: The value of percent of control at 10^−7 M was more than 60% or the value of IC50 was more than 200 nM.)
17,Cc1nc(N[C@H]2CC[C@@H](NC(=O)Cc3ccc(Oc4ccccc4)cc3)CC2)cc(N(C)C)n1 [compound 300],3 (Class 3: The value of percent of control at 10^−7 M was more than 60% or the value of IC50 was more than 200 nM.)
